Laboratory results: ChEMBL document CHEMBL1130569, “pH Dependence of the rate of DNA alkylation for (+)-duocarmycin SA and (+)-CCBI-TMI” (Bioorg Med Chem Lett, 1997)
Where “and” joins values, the source holds several entries; their conditions need not be identical. Identical values can stand only once.

Experiments:
[1] = Half-life period for acid-catalyzed solvolysis, was determined at pH 3; assay type: ADME
[2] = Compound was evaluated for first-order rate constant for acid-catalyzed solvolysis at pH 7.6; assay type: ADME
Nucleic Acid [3] = test: Compound was evaluated for relative rate constant for alkylation of the single high affinity site in w794 DNA at pH 7.5.; assay type: nucleic-acid assay
Nucleic Acid [4] = test: Compound was evaluated for relative rate constant for alkylation of the single high affinity site in w794 DNA at the 6.1 pH points at 25 degrees Centigrade.; assay type: nucleic-acid assay
Nucleic Acid [5] = test: Compound was evaluated for relative rate constant for alkylation of the single high affinity site in w794 DNA at the 6.8 pH points at 25 degrees Centigrade.; assay type: nucleic-acid assay
Nucleic Acid [6] = test: Compound was evaluated for relative rate constant for alkylation of the single high affinity site in w794 DNA at the 7.6 pH points at 25 degrees Centigrade.; assay type: nucleic-acid assay
Nucleic Acid [7] = test: Compound was evaluated for relative rate constant for alkylation of the single high affinity site in w794 DNA at the 8.0 pH points at 25 degrees Centigrade.; assay type: nucleic-acid assay
Nucleic Acid [8] = test: Compound was evaluated for pseudo first-order rate constant for alkylation of the single high affinity site in w794 DNA at the 6.1 pH points at 25 degrees Centigrade.; assay type: nucleic-acid assay
Nucleic Acid [9] = test: Compound was evaluated for pseudo first-order rate constant for alkylation of the single high affinity site in w794 DNA at the 6.8 pH points at 25 degrees Centigrade.; assay type: nucleic-acid assay
Nucleic Acid [10] = test: Compound was evaluated for pseudo first-order rate constant for alkylation of the single high affinity site in w794 DNA at the 7.6 pH points at 25 degrees Centigrade.; assay type: nucleic-acid assay
Nucleic Acid [11] = test: Compound was evaluated for pseudo first-order rate constant for alkylation of the single high affinity site in w794 DNA at the 8.0 pH points at 25 degrees Centigrade.; assay type: nucleic-acid assay
Nucleic Acid [12] = test: Compound was evaluated for relative rate constant for alkylation of the single high affinity site in w794 DNA at 10 mM NaH2PO4-Na2HPO4 buffers.; assay type: nucleic-acid assay
Nucleic Acid [13] = test: Compound was evaluated for relative rate constant for alkylation of the single high affinity site in w794 DNA at pH 7.5 10 mM NaH2PO4-Na2HPO4, 1 mM EDTA buffers.; assay type: nucleic-acid assay
Nucleic Acid [14] = test: Compound was evaluated for relative rate constant for alkylation of the single high affinity site in w794 DNA at pH 7.5 using 10 mM Tris buffers.; assay type: nucleic-acid assay
Nucleic Acid [15] = test: Compound was evaluated for relative rate constant for alkylation of the single high affinity site in w794 DNA at pH 7.5 using 10 mM Tris, 1 mM EDTA buffers; assay type: nucleic-acid assay
[16] = Half-life period for DNA alkylation, was determined; assay type: ADME
Nucleic Acid [17] = test: Compound was evaluated for relative rate constant for alkylation of the single high affinity site in w794 DNA at the 6.0 pH points at 25 degrees Centigrade.; assay type: nucleic-acid assay
Nucleic Acid [18] = test: Compound was evaluated for relative rate constant for alkylation of the single high affinity site in w794 DNA at the 6.6 pH points at 25 degrees Centigrade.; assay type: nucleic-acid assay
Nucleic Acid [19] = test: Compound was evaluated for relative rate constant for alkylation of the single high affinity site in w794 DNA at the 7.1 pH points at 25 degrees Centigrade.; assay type: nucleic-acid assay
Nucleic Acid [20] = test: Compound was evaluated for relative rate constant for alkylation of the single high affinity site in w794 DNA at the 8.1 pH points at 25 degrees Centigrade.; assay type: nucleic-acid assay

## COC(=O)c1cc2c([nH]1)C(=O)C=C1N(C(=O)OC(C)(C)C)C[C@H]3C[C@]123
[1]
  T1/2: 177 h
[2]
  k: 1.08e-06 s⁻¹

## COc1ccc2c(c1)[C@@]13C[C@@H]1CN(C(=O)OC(C)(C)C)C3=CC2=O
[2]
  k: 1.75e-06 s⁻¹

## COc1ccc2c(c1)[C@@]13C[C@@H]1CN(C(=O)c1cc4cc(OC)c(OC)c(OC)c4[nH]1)C3=CC2=O
Nucleic Acid [3]
  Krel: 1.9

## COc1cc2cc(C(=O)N3C[C@H]4C[C@@]45C3=CC(=O)c3ccc(C#N)cc35)[nH]c2c(OC)c1OC
[2]
  k: 2.5e-11 s⁻¹
Nucleic Acid [4]
  Krel: 2.55
Nucleic Acid [5]
  Krel: 1.5
Nucleic Acid [6]
  Krel: 1.2
Nucleic Acid [7]
  Krel: 1
Nucleic Acid [8]
  k obs: 0.000706 s⁻¹
Nucleic Acid [9]
  k obs: 0.000417 s⁻¹
Nucleic Acid [10]
  k obs: 0.000336 s⁻¹
Nucleic Acid [11]
  k obs: 0.000278 s⁻¹
Nucleic Acid [12]
  Krel: 1.05
Nucleic Acid [13]
  Krel: 1
Nucleic Acid [14]
  Krel: 1.74
Nucleic Acid [15]
  Krel: 1.51
Nucleic Acid [3]
  Krel: 2.5

## N#Cc1ccc2c(c1)[C@@]13C[C@@H]1CN(C(=O)c1cc4cc(NC(=O)c5cc6ccccc6[nH]5)ccc4[nH]1)C3=CC2=O
Nucleic Acid [3]
  Krel: 2.5

## COC(=O)c1cc2c([nH]1)C(=O)C=C1N(C(=O)c3cc4cc(OC)c(OC)c(OC)c4[nH]3)C[C@H]3C[C@]123 [DUOCARMYCIN]
[16]
  T1/2: 1.2 years
[2]
  k: 2.7e-11 s⁻¹
Nucleic Acid [17]
  Krel: 1.89
Nucleic Acid [18]
  Krel: 1.32
Nucleic Acid [19]
  Krel: 1.12
Nucleic Acid [6]
  Krel: 1.05
Nucleic Acid [20]
  Krel: 1
Nucleic Acid [8]
  k obs: 0.000283 s⁻¹
Nucleic Acid [9]
  k obs: 0.000199 s⁻¹
Nucleic Acid [10]
  k obs: 0.000169 s⁻¹
Nucleic Acid [11]
  k obs: 0.000158 s⁻¹ and 0.00015 s⁻¹
Nucleic Acid [3]
  Krel: 0.9

## CC(C)(C)OC(=O)N1C[C@H]2C[C@@]23C1=CC(=O)c1ccc(C#N)cc13
[2]
  k: 9.9e-07 s⁻¹

## CC(C)(C)OC(=O)N1C[C@H]2C[C@@]23C1=CC(=O)c1ccccc13
[2]
  k: 1.45e-06 s⁻¹

## COc1ccc2c(c1)[C@@]13C[C@@H]1CN(C(=O)c1cc4cc(NC(=O)c5cc6ccccc6[nH]5)ccc4[nH]1)C3=CC2=O
Nucleic Acid [3]
  Krel: 1.4

## O=C(Nc1ccc2[nH]c(C(=O)N3C[C@H]4C[C@@]45C3=CC(=O)c3ccccc35)cc2c1)c1cc2ccccc2[nH]1
Nucleic Acid [3]
  Krel: 1

## COc1cc2cc(C(=O)N3C[C@H]4C[C@@]45C3=CC(=O)c3ccccc35)[nH]c2c(OC)c1OC
Nucleic Acid [3]
  Krel: 1
